# According to patent US9023852B2, “1, 2, 4-thiadiazol-5-ylpiperazine derivatives useful in the treatment of neurodegenerative diseases” (Remynd NV, priority 2011, dated 2015):
# Test system: M17—3TAU(P301L) cells
# Assay: Neuroblastoma tauopathy model: inhibition of TAU-induced cytotoxicity (LDH)
# Type: cell-based
# Details: Homo sapiens, 168 h; inhibition of TAU-induced toxicity (LDH), 7 days differentiation with retinoic acid
# Method in brief: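 BE-M17 neuroblastoma cells stably expressing human TAU-P301L, differentiated with RA (2.5 μM in added medium) for 7 days at 37 °C with compounds at a range of concentrations. Cytotoxicity as supernatant LDH over total LDH (Cytotox 96); EC50 from dose-dependent inhibition curve.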
row,Compound,EC50 [nM]
1,"Cc1ccccc1CN1CCN(c2nc(-c3ccc(F)c(F)c3)ns2)CC1 [Example 107, 1-[3-(3,4-Difluoro-phenyl)-[1,2,4]thiadiazol-5-yl]-4-(2-methyl-benzyl)-piperazine]",72.2
2,"N#Cc1ccc(-c2nsc(N3CCN(CCc4ccccc4)CC3)n2)cc1 [Example 108, 4-[5-(4-Phenethyl-piperazin-1-yl)-[1,2,4]thiadiazol-3-yl]-benzonitrile]",7.9
3,"N#Cc1cccc(-c2nsc(N3CCN(CCc4ccccc4)CC3)n2)c1 [Example 109, 3-[5-(4-Phenethyl-piperazin-1-yl)-[1,2,4]thiadiazol-3-yl]-benzonitrile]",3
4,"N#Cc1ccc(-c2nsc(N3CCN(CCc4ccc(F)cc4)CC3)n2)cc1 [Example 110, 4-(5-{4-[2-(4-Fluoro-phenyl)-ethyl]piperazin-1-yl}-[1,2,4]thiadiazol-3-yl)-benzonitrile]",17.8
5,"N#Cc1cccc(-c2nsc(N3CCN(CCc4ccc(F)cc4)CC3)n2)c1 [Example 111, 3-(5-{4-[2-(4-Fluoro-phenyl)-ethyl]piperazin-1-yl}-[1,2,4]thiadiazol-3-yl)-benzonitrile]",3.1
6,"N#Cc1ccc(-c2nsc(N3CCN(CCc4ccc(Cl)cc4)CC3)n2)cc1 [Example 112, 4-(5-{4-[2-(4-Chloro-phenyl)-ethyl]piperazin-1-yl}-[1,2,4]thiadiazol-3-yl)-benzonitrile]",56.7
7,"N#Cc1cccc(-c2nsc(N3CCN(CCc4ccc(Cl)cc4)CC3)n2)c1 [Example 113, 3-(5-{4-[2-(4-Chloro-phenyl)-ethyl]piperazin-1-yl}-[1,2,4]thiadiazol-3-yl)-benzonitrile]",17.1
8,"COc1ccc(CCN2CCN(c3nc(-c4ccc(C#N)cc4)ns3)CC2)cn1 [Example 114, 4-(5-{4-[2-(6-Methoxy-pyridin-3-yl)-ethyl]-piperazin-1-yl}-[1,2,4]thiadiazol-3-yl)-benzonitrile]",7.9
9,"COc1ccc(CCN2CCN(c3nc(-c4cccc(C#N)c4)ns3)CC2)cn1 [Example 115, 3-(5-{4-[2-(6-Methoxy-pyridin-3-yl)-ethyl]-piperazin-1-yl}-[1,2,4]thiadiazol-3-yl)-benzonitrile]",2.3
10,"COc1cc(CCN2CCN(c3nc(-c4ccc(C#N)cc4)ns3)CC2)ccn1 [Example 116, 4-(5-{4-[2-(2-Methoxy-pyridin-4-yl)-ethyl]-piperazin-1-yl}-[1,2,4]thiadiazol-3-yl)-benzonitrile]",14.1
11,"COc1cc(CCN2CCN(c3nc(-c4cccc(C#N)c4)ns3)CC2)ccn1 [Example 117, 3-(5-{4-[2-(2-Methoxy-pyridin-4-yl)-ethyl]-piperazin-1-yl}-[1,2,4]thiadiazol-3-yl)-benzonitrile]",5.8
12,"Cc1ccccc1CN1CCN(c2nc(-c3ccc(C#N)cc3)ns2)CC1 [Example 118, 4-{5-[4-(2-Methyl-benzyl)-piperazin-1-yl]-[1,2,4]thiadiazol-3-yl}-benzonitrile]",181
13,"Cc1ccccc1CN1CCN(c2nc(-c3cccc(C#N)c3)ns2)CC1 [Example 119, 3-{5-[4-(2-Methyl-benzyl)-piperazin-1-yl]-[1,2,4]thiadiazol-3-yl}-benzonitrile]",25
14,"Clc1ccnc(-c2nsc(N3CCN(CCc4ccccc4)CC3)n2)c1 [Example 120, 1-[3-(4-Chloro-pyridin-2-yl)-[1,2,4]thiadiazol-5-yl]-4-phenethyl-piperazine]",16.1
15,"Clc1ccc(-c2nsc(N3CCN(CCc4ccccc4)CC3)n2)nc1 [Example 121, 1-[3-(5-Chloro-pyridin-2-yl)-[1,2,4]thiadiazol-5-yl]-4-phenethyl-piperazine]",34.6
16,"Fc1ccc(CCN2CCN(c3nc(-c4cc(Cl)ccn4)ns3)CC2)cc1 [Example 122, 1-[3-(4-Chloro-pyridin-2-yl)-[1,2,4]thiadiazol-5-yl]-4-[2-(4-fluoro-phenyl)-ethyl]-piperazine]",42.5
17,"Clc1ccc(CCN2CCN(c3nc(-c4cc(Cl)ccn4)ns3)CC2)cc1 [Example 123, 1-[2-(4-Chloro-phenyl)-ethyl]-4-[3-(4-chloro-pyridin-2-yl)-[1,2,4]thiadiazol-5-yl]-piperazine]",94.6
18,"Clc1ccc(CCN2CCN(c3nc(-c4ccc(Cl)cn4)ns3)CC2)cc1 [Example 124, 1-[2-(4-Chloro-phenyl)-ethyl]-4-[3-(5-chloro-pyridin-2-yl)-[1,2,4]thiadiazol-5-yl]-piperazine]",458
19,"COc1ccc(CCN2CCN(c3nc(-c4cc(Cl)ccn4)ns3)CC2)cc1 [Example 125, 1-[3-(4-Chloro-pyridin-2-yl)-[1,2,4]thiadiazol-5-yl]-4-[2-(4-methoxy-phenyl)-ethyl]-piperazine]",3
20,"COc1ccc(CCN2CCN(c3nc(-c4ccc(Cl)cn4)ns3)CC2)cc1 [Example 126, 1-[3-(5-Chloro-pyridin-2-yl)-[1,2,4]thiadiazol-5-yl]-4-[2-(4-methoxy-phenyl)-ethyl]-piperazine]",7

row,Compound,EC50 [nM]
1,"COc1cc(CCN2CCN(c3nc(-c4cc(Cl)ccn4)ns3)CC2)ccn1 [Example 127, 1-[3-(4-Chloro-pyridin-2-yl)-[1,2,4]thiadiazol-5-yl]-4-[2-(2-methoxy-pyridin-4-yl)-ethyl]-piperazine]",109
2,"Cc1ccccc1CN1CCN(c2nc(-c3cc(Cl)ccn3)ns2)CC1 [Example 128, 1-[3-(4-Chloro-pyridin-2-yl)-[1,2,4]thiadiazol-5-yl]-4-(2-methyl-benzyl)-piperazine]",110
3,"Cc1ccccc1CN1CCN(c2nc(-c3ccc(Cl)cn3)ns2)CC1 [Example 129, 1-[3-(5-Chloro-pyridin-2-yl)-[1,2,4]thiadiazol-5-yl]-4-(2-methyl-benzyl)-piperazine]",92.3
4,"Clc1cncc(-c2nsc(N3CCN(CCc4ccccc4)CC3)n2)c1 [Example 130, 1-[3-(5-Chloro-pyridin-3-yl)-[1,2,4]thiadiazol-5-yl]-4-phenethyl-piperazine]",0.9
5,"Fc1ccc(CCN2CCN(c3nc(-c4cncc(Cl)c4)ns3)CC2)cc1 [Example 131, 1-[3-(5-Chloro-pyridin-3-yl)-[1,2,4]thiadiazol-5-yl]-4-[2-(4-fluoro-phenyl)-ethyl]-piperazine]",1.3
6,"Clc1ccc(CCN2CCN(c3nc(-c4cncc(Cl)c4)ns3)CC2)cc1 [Example 132, 1-[2-(4-Chloro-phenyl)-ethyl]-4-[3-(5-chloro-pyridin-3-yl)-[1,2,4]thiadiazol-5-yl]-piperazine]",3.3
7,"COc1cc(CCN2CCN(c3nc(-c4cncc(Cl)c4)ns3)CC2)ccn1 [Example 133, 1-[3-(5-Chloro-pyridin-3-yl)-[1,2,4]thiadiazol-5-yl]-4-[2-(2-methoxy-pyridin-4-yl)-ethyl]-piperazine]",1.4
8,"Fc1ccc(CCN2CCN(c3nc(-c4ccc(Cl)cc4)ns3)CC2)cc1F [Example 134, 1-[3-(4-Chloro-phenyl)-[1,2,4]thiadiazol-5-yl]-4-[2-(3,4-difluoro-phenyl)-ethyl]-piperazine]",37.8
9,"Fc1ccc(CCN2CCN(c3nc(-c4cccc(Cl)c4)ns3)CC2)cc1F [Example 135, 1-[3-(3-Chloro-phenyl)-[1,2,4]thiadiazol-5-yl]-4-[2-(3,4-difluoro-phenyl)-ethyl]-piperazine]",4.5
10,"Fc1ccc(CCN2CCN(c3nc(-c4ccc(F)c(F)c4)ns3)CC2)cc1F [Example 136, 1-[2-(3,4-Difluoro-phenyl)-ethyl]-4-[3-(3,4-difluoro-phenyl)-[1,2,4]thiadiazol-5-yl]-piperazine]",6.2
11,"N#Cc1cccc(-c2nsc(N3CCN(CCc4ccc(F)c(F)c4)CC3)n2)c1 [Example 137, 3-(5-{4-[2-(3,4-Difluoro-phenyl)-ethyl]-piperazin-1-yl}-[1,2,4]thiadiazol-3-yl)-benzonitrile]",6.2
12,"N#Cc1ccc(-c2nsc(N3CCN(CCc4ccc(F)c(F)c4)CC3)n2)cc1 [Example 138, 4-(5-{4-[2-(3,4-Difluoro-phenyl)-ethyl]piperazin-1-yl}-[1,2,4]thiadiazol-3-yl)-benzonitrile]",18.2
13,"Fc1ccc(CCN2CCN(c3nc(-c4ccc(Cl)cn4)ns3)CC2)cc1F [Example 139, 1-[3-(5-Chloro-pyridin-2-yl)-[1,2,4]thiadiazol-5-yl]-4-[2-(3,4-difluoro-phenyl)-ethyl]-piperazine]",47.2
14,"FC(F)(F)c1cccc(CCN2CCN(c3nc(-c4ccc(Cl)cc4)ns3)CC2)c1 [Example 140, 1-[3-(4-Chloro-phenyl)-[1,2,4]thiadiazol-5-yl]-4-[2-(3-trifluoromethyl-phenyl)-ethyl]-piperazine]",72.6
15,"Fc1cccc(-c2nsc(N3CCN(CCc4cccc(C(F)(F)F)c4)CC3)n2)c1 [Example 141, 1-[3-(3-Fluoro-phenyl)-[1,2,4]thiadiazol-5-yl]-4-[2-(3-trifluoromethyl-phenyl)-ethyl]-piperazine]",198
16,"FC(F)(F)c1cccc(CCN2CCN(c3nc(-c4cccc(Cl)c4)ns3)CC2)c1 [Example 142, 1-[3-(3-Chloro-phenyl)-[1,2,4]thiadiazol-5-yl]-4-[2-(3-trifluoromethyl-phenyl)-ethyl]-piperazine]",3.7
17,"N#Cc1ccc(-c2nsc(N3CCN(CCc4cccc(C(F)(F)F)c4)CC3)n2)cc1 [Example 143, 4-(5-{4-[2-(3-Trifluoromethyl-phenyl)-ethyl]-piperazin-1-yl}-[1,2,4]thiadiazol-3-yl)-benzonitrile]",143
18,"FC(F)(F)c1ccc(CCN2CCN(c3nc(-c4ccc(Cl)cc4)ns3)CC2)cc1 [Example 144, 1-[3-(4-Chloro-phenyl)-[1,2,4]thiadiazol-5-yl]-4-[2-(4-trifluoromethyl-phenyl)-ethyl]-piperazine]",602
19,"FC(F)(F)c1ccc(CCN2CCN(c3nc(-c4cccc(Cl)c4)ns3)CC2)cc1 [Example 145, 1-[3-(3-Chloro-phenyl)-[1,2,4]thiadiazol-5-yl]-4-[2-(4-trifluoromethyl-phenyl)-ethyl]-piperazine]",462
